From patent US11421001B2, “Template-fixed peptidomimetics” (UNIVERSITAET ZUERICH, priority 2007, dated 2022)
Positions of bridges follow the written chain, without caps; N, C: chain ends. Non-standard residues stand in square brackets, D forms with d. Residues, ends and D or L forms follow the SMILES beside them. Dab = NCC[C@H](N)C(=O)O

Tests used:
FIGS-Assay = type: cell-based; conditions: 48 hours of co-cultivation; ONPG read out at 405 nm
Description: The assay was performed according to ref. 5, below. Stock dilutions of the peptides (10 μM) were prepared by dissolving in […] at room temperature. Stock solutions were kept at +4° C., light protected. Working dilutions were prepared extemporaneously by serial dilution in Phosphate Buffered Saline (PBS) and added in a final volume of 10 μl directly to the cell cultures. After 48 hours of co-cultivation the cultures were rinsed with PBS and then exposed to glutaraldehyde/formaldehyde (0.2%/2%) in PBS for five minutes. For photometric quantification the fixed cultures were subsequently incubated with ortho-nitro-phenyl-galactopyranoside (ONPG) as a β-galactosidase substrate, which was enzymatically converted into the chromophore ortho-nitrophenol (ONP). The read out is directly obtained by measuring optical density of wells at 405 nm in an iEMS 96well-plate reader.
‘CCR5’ cells were cultured in DMEM medium with […] glucose, 10% fetal bovine serum (FBS), supplemented with 50 U/ml Penicillin and 50 μg/ml Streptomycin (Pen/Strept.). Hut/4-3 cells were maintained in RPMI medium, 10% FBS, supplemented with Pen/Strept. and 10 mM HEPES. HELA cells and CCRF-CEM cells were maintained in RPMI1640 plus 5% FBS, Pen/Strept and 2 mM L-Glutamine. Cos-7 cells were grown in DMEM medium with […] glucose supplemented with 10% FCS, Pen/Strept. and 2 mM L-Glutamine. […]

[1] = Maximum tolerated dose in mice; type: in vivo, mouse; conditions: CD1 mice, 120 mg/kg bolus, i.v, ip and sc.
Description: 3.1. Maximum Tolerated Dose in Mice
a) The compound of Example 1, dispersed in Water for Injection or 0.9% physiological saline), was administered, in the preliminary study, by i.v. injection at dose levels of 35, 50, 70, 85, 100, 150, 250 or 500 mg/kg to groups consisting of one male and one female mouse (Crl:CD1(ICR)). In addition, two groups comprising two male and two female mice received dose levels of 90 and 100 mg/kg, respectively, and the 50 mg/kg dose level was repeated in a group comprising one male and one female.
b) Maximum tolerated dose studies (MTD) carried out with the compound of Example 2 using CD1 mice (3 mice/group) and was performed using i.v, ip and sc. administration.

[2] = tested on: human red blood cells (hRBC); test: Hemolysis; type: cell-based
Description: The peptides were tested for their hemolytic activity against human red blood cells (hRBC). Fresh hRBC were washed three times with phosphate buffered saline (PBS) by centrifugation for 10 min at 2000×g. Peptides at a concentration of 100 μM were incubated with 20% v/v hRBC for 1 hour at 37° C. The final erythrocyte concentration was approximately 0.9×10^9 cells per ml. A value of 0% resp. 100% cell lysis was determined by incubation of the hRBC in the presence of PBS alone and respectively 0.1% Triton X-100 in H2O. The samples were centrifuged and the supernatant was 20-fold diluted in PBS buffer and the optical density (OD) of the sample at […] was measured. The 100% lyses value (OD540H2O) gave an OD540 of approximately 1.3-1.8. Percent hemolysis was calculated as follows: (OD540peptide/OD540H2O)×100%.

For `C[C@@H]1NC(=O)[C@H](CO)NC(=O)[C@@H]2CSSC[C@H](NC(=O)[C@H](Cc3ccc(O)cc3)NC(=O)[C@H](CCCNC(=N)N)NC(=O)[C@H](CCN)NC(=O)[C@H]3CCCN3C1=O)C(=O)N[C@@H](Cc1ccc(O)cc1)C(=O)N[C@@H](CCC(N)=O)C(=O)N[C@@H](CCCCN)C(=O)N1CCC[C@@H]1C(=O)N1CCC[C@H]1C(=O)N[C@@H](Cc1ccc(O)cc1)C(=O)N[C@@H](Cc1c[nH]cn1)C(=O)N[C@@H](Cc1ccc(O)cc1)C(=O)N2` [Example 2] (cyclo(YHYCSA[dP][Dab]RYCYQK[dP]P); disulfide 4-11), the IC50 (FIGS-Assay) was 24.7 nM, the “survival at highest dose tested” value [1] was “all animals survived” and the “symptoms at highest dose tested” value [1] was “only mild symptoms were observed”. For the same compound, the “Hemo-lysis at 100 μM” value [2] was 0.3.
